Reference: US11932589B2, “Hydrofluoroolefins and methods of using same” (3M INNOVATIVE PROPERTIES COMPANY, priority 2019, dated 2024)

What was measured:
Type in all cases: physicochemical
[1] = Flash point, small scale closed-cup apparatus (ASTM D-3278-96 e-1); conditions: closed-cup ASTM method; no flash point = non-flammable
Source text: The acetate was thermally decomposed and the title product separated by fractional distillation. The structure was verified by GC-MS and NMR.

[2] = Largest Soluble Hydrocarbon (LSH) test; conditions: hydrofluoroolefin:hydrocarbon about 1:1 to 1:2 by weight, longest hydrocarbon compatible without haze
Protocol: Largest Soluble Hydrocarbon (LSH): The LSH of each hydrofluoroolefin compound was determined by mixing the compound with hydrocarbons of varying molecular weight (CnH2n+2, where n=9 to 24) in a hydrofluoroolefin:hydrocarbon ratio of about 1:1 to 1:2 by weight at room temperature (25° C.) and at 50° C. […] A larger value of n is interpreted herein to indicate a greater ability of the hydrofluoroolefin to clean hydrocarbons.

[3] = Open pan exposure to direct flame

## C=CC(F)(C(F)C(F)(F)F)C(F)(F)F (stereo not drawn) [Example 1, 3,4,5,5,5-pentafluoro-3-(trifluoromethyl)pent-1-ene]
[1]
  Flash point: no flash point
[2]; 25° C.
  LSH (n in CnH2n+2): 13
[2]; 50° C.
  LSH (n in CnH2n+2): 14

## C=C(C)C1C(F)C(F)(F)C(F)(F)C1(F)F (stereo not drawn) [Example 4, 1,1,2,2,3,3,4-heptafluoro-5-isopropenyl-cyclopentane]
[3]
  Burning in an open pan upon exposure to direct flame: not observed to burn
[2]; 25° C.
  LSH (n in CnH2n+2): 17
[2]; 50° C.
  LSH (n in CnH2n+2): 21
